Key:
[1] = test system: brain; assay: Matured TTM-001 and TTM-002 variants, NGS enrichment in mouse brain; assay type: in vivo, mice; details: relative to AAV9 control
[2] = test system: brains, heart, liver, muscle, and DRG of the NHPs; assay: Maturation of TTM-001 and TTM-002 capsids, NGS enrichment in NHP tissues; assay type: in vivo; details: relative to AAV9 control
Procedure, shortened: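 Variants carry mutations within and flanking the loop IV peptide insert: positions 450–466 were triplet-randomized, while positions 449–466 received low-frequency point mutations. The combined pool went into two NHPs, and each peptide was scored by NGS enrichment ratio against AAV9.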

[3] = NGS fold-enrichment, brain of mice
[4] = NGS fold-enrichment, DRG of NHPs
[5] = NGS fold-enrichment, RNA, brain of NHPs
[6] = NGS fold-enrichment, heart of NHPs
[7] = NGS fold-enrichment, liver DNA of NHPs
[8] = NGS fold-enrichment, liver RNA of NHPs
[9] = NGS fold-enrichment, muscle of NHPs
[10] = NGS fold-enrichment, mouse brain
[11] = NGS fold-enrichment of RNA, NHP brain
[12] = NGS fold-enrichment, NHP liver DNA
[13] = NGS fold-enrichment, NHP liver RNA
[14] = NGS fold-enrichment, NHP muscle

| Sequence | Fold Enrichment relative to AAV9, Brain (Mouse) [1, 10] | Fold Enrichment relative to AAV9, Brain (NHP) [2, 11] | Fold Enrichment relative to AAV9, DRG (NHP) ([2]; NGS fold-enrichment, NHP DRG) | Fold Enrichment relative to AAV9, Heart (NHP) ([2]; NGS fold-enrichment, NHP heart) | Fold Enrichment relative to AAV9, Liver DNA (NHP) [2, 12] | Fold Enrichment relative to AAV9, Liver RNA (NHP) [2, 13] | Fold Enrichment relative to AAV9, Muscle (NHP) [2, 14] | further results |
| --- | --- | --- | --- | --- | --- | --- | --- | --- |
| KTINGGGSPHSKSQNQHT | – | – | – | – | – | – | – | Fold Enrichment relative to AAV9, Brain (Mouse) [1, 3]: 100.748 fold; Fold Enrichment relative to AAV9, DRG (NHP) [2, 4]: 0.000 fold; Fold Enrichment relative to AAV9, Brain (NHP) [2, 5]: 67.773 fold; Fold Enrichment relative to AAV9, Heart (NHP) [2, 6]: 0.057 fold; Fold Enrichment relative to AAV9, Liver DNA (NHP) [2, 7]: 0.220 fold; Fold Enrichment relative to AAV9, Liver RNA (NHP) [2, 8]: 0.000 fold; Fold Enrichment relative to AAV9, Muscle (NHP) [2, 9]: 0.000 fold |
| KTINGGGSPHSKSQNQLT | 126.986 fold | 82.231 fold | 0.000 fold | 0.070 fold | 0.498 fold | 0.000 fold | 0.000 fold | Fold Enrichment relative to AAV9, Brain (Mouse) [1, 3]: 126.986 fold; Fold Enrichment relative to AAV9, DRG (NHP) [2, 4]: 0.000 fold; Fold Enrichment relative to AAV9, Brain (NHP) [2, 5]: 82.231 fold; Fold Enrichment relative to AAV9, Heart (NHP) [2, 6]: 0.070 fold; Fold Enrichment relative to AAV9, Liver DNA (NHP) [2, 7]: 0.498 fold; Fold Enrichment relative to AAV9, Liver RNA (NHP) [2, 8]: 0.000 fold; Fold Enrichment relative to AAV9, Muscle (NHP) [2, 9]: 0.000 fold |
| KTINGGGSPHSKSQNRQT | – | – | – | – | – | – | – | Fold Enrichment relative to AAV9, Brain (Mouse) ([1]; mouse brain): 149.370 fold; Fold Enrichment relative to AAV9, Brain (NHP) ([2]; NGS fold-enrichment of matured AAV capsid variants, NHP brain, RNA): 51.017 fold; Fold Enrichment relative to AAV9, DRG (NHP) ([2]; NHP DRG): 0.000 fold; Fold Enrichment relative to AAV9, Heart (NHP) ([2]; NHP heart): 0.000 fold; Fold Enrichment relative to AAV9, Liver DNA (NHP) ([2]; NHP liver, DNA): 0.421 fold; Fold Enrichment relative to AAV9, Liver RNA (NHP) ([2]; NHP liver, RNA): 0.000 fold; Fold Enrichment relative to AAV9, Muscle (NHP) ([2]; NHP muscle): 0.000 fold |
| KTINGHDSPHKIGLDQQT | 5.469 fold | 165.627 fold | 0.000 fold | 0.000 fold | 0.000 fold | 1.942 fold | 0.000 fold | – |
| KTINGHDSPHKIGQNQHA | 7.578 fold | 77.321 fold | 0.000 fold | 18.836 fold | 0.132 fold | 0.220 fold | 0.028 fold | – |
| KTINGHDSPHKSAQNYQT | 19.443 fold | 130.375 fold | 0.000 fold | 0.124 fold | 0.123 fold | 0.097 fold | 0.000 fold | – |
| KTINGHDSPHKSGQLVIT | 11.323 fold | 76.781 fold | 0.089 fold | 0.064 fold | 0.475 fold | 0.338 fold | 0.000 fold | – |
| KTINGHDSPHKSGQNKLE | 12.419 fold | 76.204 fold | 0.000 fold | 1.430 fold | 0.031 fold | 0.015 fold | 0.000 fold | – |
| KTINGHDSPHKSGQSKQA | 7.510 fold | 101.460 fold | 0.000 fold | 0.222 fold | 0.114 fold | 0.185 fold | 0.000 fold | – |
| KTINGHDSPHKSGQSVPT | 6.768 fold | 77.840 fold | 0.000 fold | 0.003 fold | 0.061 fold | 0.136 fold | 0.000 fold | – |
| KTINGHDSPHKSGQSVQT | 9.321 fold | 75.748 fold | 0.010 fold | 6.808 fold | 0.058 fold | 0.165 fold | 0.000 fold | – |
